Assays:
[1] = tested on: MDA-MB-4355 Breast Cancer Cells; test: XTT cell proliferation assay, breast cancer cells; design: species or system human; conditions: 200 μM based on Re, 24 h
Method: (§1) In a typical experiment (see FIG. 10) an average of 2000 cells were grown in microtiter plates (tissue culture grade, 96 wells, flat bottom) in a final volume of 100 μL culture medium per well in a humidified-atmosphere (37° C., >6.5% CO2). After 24 h the rhenium complex was added the wells (final concentrations 200 μM based on Re) and the cells were grown for further 24 h under a humidified atmosphere. After the incubation period 50 μL of the XTT labeling mixture were added to each well. The plates were incubated again for 4 h. After the this final incubation period the spectrophotometrical absorbance (optical density OD) of each well was measured at 450 nm.
(§2) Control experiments were performed as described above without the addition of the rhenium compounds. Blanks were obtained by adding 50 μL of H2O instead of the XTT labeling mixture. Experiments were done in double and the results represent the average.
(§3) The % of cell survival was calculated base on the relative OD of the samples. Maximum control OD was set to 100% cell survival.

[2] = tested on: B16 F1 mouse melanoma cells; test: XTT cell proliferation assay, melanoma cells; conditions: 200 μM based on Re (lower for poorly soluble complexes), 24 h
Method: as §1, §2, §3
(§4) The procedure is as described in Example 10 and FIG. 10. Only the cancer cell line varies.

[3] = tested on: OVMZ-6-WT Ovarian Cancer Cells; test: XTT cell proliferation assay, ovarian cancer cells; design: species or system human; conditions: 200 μM based on Re, 24 h
Method: as §1, §2, §3, §4

ΦX174 plasmid DNA [4] = test: Stability of the [M(CO)3]+ ΦX174 plasmid DNA adduct, histidine challenge; assay type: binding; conditions: 100-fold excess of histidine
Method: (§5) ΦX174 plasmids were purchased from Promega and used without further purification. ΦX174 RF plasmid DNA (0.1 mg) was mixed with the corresponding rhenium complexes in H2O at [complex]/[bp] 0.018-1.8/1. The mixtures were incubated in water at 37° C. for 22 h in the dark before analyzing by gel electrophoresis. The pH of the mixtures remained constant at ≈7 in all cases.
(§6) DNA binding was examined by gel electrophoretic mobility shift assays through 9 cm 0.75% agarose slab gels with TAE running buffer. The gels were run at RT, with voltages varying between 50 and 75 V. Running time depended upon the voltage and were usually between 1.5-2 h. The resultant gels were stained with ethidium bromide in the buffer at a concentration of ≈0.3 μg/mL. Bands were visualized by […] UV transillumination equipped with a digital camera.
Complexes 1 and 7 were incubated with ΦX174 plasmid DNA as described in Example 6. Subsequently, the plasmid was challenged with histidine to cleave the complexes from ΦX174 plasmid DNA.

ΦX174 plasmid DNA [5] = test: Interaction with ΦX174 plasmid DNA, gel electrophoretic mobility shift; assay type: binding; conditions: [complex]/[bp] 0.018-1.8/1, water, 37° C., 22 h, agarose gel
Method: as §5, §6

Row | Compound | cytotoxicity (% of cell survival) [1] | cytotoxicity (% of cell survival) [2] | cytotoxicity (% of cell survival) [3] | release of complex from ΦX174 plasmid DNA by histidine (ΦX174 plasmid DNA [4]) | scrambling (structural change) of ΦX174 plasmid DNA (ΦX174 plasmid DNA [5])
1 | (Et4N)2[ReBr3(CO)3] [Complex 1] | inhibit cell proliferation | strongly inhibit cell proliferation | inhibits cell proliferation | no release could be observed | 
2 | N.N.[Cl][Pt][Cl] [cisplatin, reference compound] |  |  |  |  | increased amount of scrambling
3 | [Re(9-MeG)2(H2O) (CO)3] (ClO4) [Complex 3] | inhibit cell proliferation |  |  |  | 

— patent US20070071672A1, “Use of metal tricarbonyl complexes as radiotherapeutic chemotoxic agents” (priority 2003, published 2007)
